According to patent publication US20240166602A1, “SUBSTITUTED DIARYL COMPOUND AS WELL AS PREPARATION METHOD AND APPLICATION THEREOF” (SHANDONG FIRST MEDICAL UNIV & SHANDONG ACADEMY OF MEDICAL …, priority 2021, published 2024):

Legend:
Assay type in all cases: cell-based
[1] = test system: human melanoma (A375) cells; experiment: MTT tumor cell growth inhibition, human melanoma (A375); conditions: Homo sapiens, A-375; A375, 48 h culture, MTT method; read-out: IC50 value of target compound against cancer cell proliferation, A375
Method: (§1) Dissolve CHJ compound series with dimethyl sultbxide (DMSO, final concentration 0.4%), and use RPMI-1640 culture medium containing 15% fetal calf serum to prepare 1 mg/mL solution for future use. During drug administration in groups, use the culture medium to dilute it to the concentration needed.
(§2) Cell lines: human lung cancer (A549), Inman ovarian cancer (SKOV3), human melanoma (A375) and human colon cancer (LOVO) cell lines, all purchased from the Cell Bank of the Chinese Academy of Sciences, DMEM containing 15% fetal bovine serum (High Glucose) culture medium, placed in a 37° C., 5% CO2 incubator.
(§3) MTT is an oxidizing yellow dye with the chemical name of 3-(4,5-dimethyl-2-thiazolyl)-2,5-diphenyl-2-H-tetrazoliumbromide tetrazole bromide. The MMT method, also known as the MTT colorimetric method, can test the survival and growth of cells. The method is simple and easily accessible and often used to screet the substance with cytotoxic activity. The basic principle of testing, is that succinodehydrogenase can reduce exogenous MIT so that MTT is reduced to blueviolet crystal Formazan insoluble to water. The crystal deposits in cells. The succinodehydrogenase exists in the mitochondria of living cells, not in the dead cells. Therefore, the chromogenic reaction can only take place in living cells. Then, dissolve the blueviolet crystal Formazan contained in cells with dimethyl sulfoxide (DMSO), and measure its absorbancy with microplate reader so that the count of living cells is reflected indirectly. Within the scope of certain cell count, the amount of blueviolet crystal Formazan formed is positively correlated to the count of living cells.
(§4) Human lung cancer (A549), human ovarian cancer (SKOV3), human melanoma (A375) and human colon cancer (LOVO) ceilsare all adherent. Based on the growth rate of tumor cells, wash the adherent tumor cells in the logarithmic phase and digest them in 0.25% EDTA pancreatic enzyme. Adjust the cell count to 1×10^5/mL and inoculate the cells in 96-pore plate, each pore containing 100 μL. Culture the cells in the 37° C. CO2 incubator, and administer the drug 24 h later. Add pharmaceutical (CJH compound series) of different concentrations to the administration group. Set up 5 dosage groups for each pharmaceutical, respectively 100, 10, 1, 0.1, 0.01 μmol/L. Set up three complex pores for each concentration. Set up blank control, DMSO (0.8%) solvent control and cis-platinum positive control. After 48 h of culture in the 37 ° C. incubator containing 5% CO2, measure the OD value through MTT method and calculate the cell inhibition ratio.
(§5) After 48 h of culture of human lung cancer (A549), human ovarian cancer (SKOV3). human melanoma (A375) and human colon cancer (LOVO) cells, stop it and add 10 μL 0.5% MTT solution to each pore. Place it in the CO2 incubator for 4 h. Remove the liquid from each pore, respectively add 0.2 mL DMSO solution, and oscillate it adequately on the table concentrator under low frequency so that the blueviolet crystal Formazan is dissolved adequately. Place it in the microplate reader and record the OD value at the wavelength of […]. Calculate the average OD value of three parallel pores of different concentrations, and calculate the cell inhibition ratio and IC50 of each tested pharmaceutical under different concentrations based on the average.
(§6) Inhibition ratio (%)=[1-tested sample OD/negative control group OD]×100%.

[2] = test system: human lung cancer (A549) cells; experiment: MTT tumor cell growth inhibition, human lung cancer (A549); conditions: Homo sapiens; A549, 48 h culture, MTT method; read-out: IC50 value of target compound against cancer cell proliferation, A549
Method: as §1, §2, §3, §4, §5, §6

[3] = test system: human colon cancer (LOVO) cells; experiment: MTT tumor cell growth inhibition, human colon cancer (LOVO); conditions: Homo sapiens, 48 h culture, MTT method, read-out: IC50 value of target compound against cancer cell proliferation, LOVO
Method: as §1, §2, §3, §4, §5, §6

[4] = test system: human ovarian cancer (SKOV3) cells; experiment: MTT tumor cell growth inhibition, human ovarian cancer (SKOV3); conditions: Homo sapiens, SK-OV-3; SKOV3, 48 h culture, MTT method; read-out: IC50 value of target compound against cancer cell proliferation, SKOV3
Method: as §1, §2, §3, §4, §5, §6

Compound | IC50 [1] [µM] | IC50 [2] [µM] | IC50 [3] [µM] | IC50 [4] [µM]
CCN(CC)CCOc1ccc(CN(C)CC(O)COc2ccccc2C(C)C)cc1OC (centres unmarked) [CHJ04089, 1-((4-(2-(diethylamino)ethoxy)-3-methoxybenzyl)(methyl)amino)-3-(2-isopropylphenoxy)propan-2-ol] | 15 ± 2.37 | 27.8 ± 1.73 | 49.5 ± 3.54 | 42.7 ± 2.61
CCOc1ccccc1OCC(O)CN(C)Cc1ccc(OCCN2CCC(C)CC2)c(OC)c1 (centres unmarked) [SAMS10] | 27.1 ± 0.66 | 14.64 ± 0.06 | 8.48 ± 0.07 | 21.07 ± 0.18
CCN(CC)CCOc1ccc(CN(C)CC(O)COc2cc(C(F)(F)F)ccc2Br)cc1OC (centres unmarked) [CHJ04090, 1-(2-bromo-5-(trifluoromethyl)phenoxy)-3-((4-(2-(diethylamino)ethoxy)-3-methoxybenzyl)(methyl)amino)propan-2-ol] | 11.7 ± 2.12 | 35 ± 2.21 | 34 ± 2.59 | 36.4 ± 2.17
COc1cc(CN(C)CC(O)COc2ccc(C)c(Br)c2)ccc1OCCN1CCCC1 (centres unmarked) [CHJ04064, 1-(3-bromo-4-methylphenoxy)-3-((3-methoxy-4-(2-(pyrrolidin-1-yl)ethoxy)benzyl) (methyl)amino)propan-2-ol] | 9.24 ± 2.65 | 21.5 ± 3.65 | 3.55 ± 2.14 | 17.1 ± 0.24
COc1cc(CN(C)CC(O)COc2ccc(Cl)c(Cl)c2)ccc1OCCN1CCCC1 (centres unmarked) [CHJ04072, 1-(3,4-dichlorophenoxy)-3-((3-methoxy-4-(2-(pyrrolidin-1-yl)ethoxy)benzyl)(methyl)amino)propan-2-ol] | 2.26 ± 0.37 | 12.5 ± 2.44 | 5.21 ± 2.31 | 9.62 ± 4.23
COc1cc(CN(C)CC(O)COc2cc(C(F)(F)F)ccc2C(F)(F)F)ccc1OCCN1CCC(C)CC1 (centres unmarked) [CHJ02050, 1-(2,5-bis(trifluoromethyl)phenoxy)-3-((3-methoxy-4-(2-(4-methylpiperidin-1-yl)ethoxy)benzyl)(methyl)amino)propan-2-ol] | 1.87 ± 0.07 | 1.09 ± 1.55 | 3.88 ± 1.8 | 4.04 ± 0.06
COc1cc(CN(C)CC(O)COc2ccc(C)c(Br)c2)ccc1OCCn1ccnc1 (centres unmarked) [CHJ05003, 1-((4-(2-(1H-imidazol-1-yl)ethoxy)03-methoxybenzyl)(methyl)amino)-3-(3-bromo-4-methylphenoxy)propan-2-ol] | 24.9 ± 1.93 | 34 ± 2.11 | 52.5 ± 1.22 | 35.1 ± 1.35
COc1cc(CN(C)CC(O)COc2cc(C(F)(F)F)ccc2Br)ccc1OCCN1CCCC1 (centres unmarked) [CHJ04065, 1-(-bromo-5-(trifluoromethyl)phenoxy)-3-((3-methoxy-4-(2-(pyrrolidin-1-yl)ethoxy)benzyl)(methyl)amino)propan-2-ol] | – | 25.5 ± 2.11 | 3.14 ± 1.06 | 27.1 ± 1.62
COc1cc(CN(C)CC(O)COc2cc(F)cc(Br)c2)ccc1OCCN1CCC(C)CC1 (centres unmarked) [CHJ04023] | 0.81 ± 0.33 | 5.44 ± 2.54 | 3.07 ± 1.62 | 8.03 ± 2.77
CCN(CC)CCOc1ccc(CN(C)CC(O)COc2ccc(Cl)c(Cl)c2)cc1OC (centres unmarked) [CHJ04091, 1-(3,4-dichlorophenoxy)-3-((4-(2-(diethylamino)ethoxy)-3-methoxybenzyl)(methyl)amino)propan-2-ol] | 4.01 ± 3.11 | 11.1 ± 1.33 | 10.6 ± 3.2 | 17.8 ± 3.11
CCN(CC)CCOc1ccc(CN(C)CC(O)COc2ccc(Br)c(C(F)(F)F)c2)cc1OC (centres unmarked) [CHJ04093] | 2.6 ± 1.22 | 20.1 ± 2.01 | 14.5 ± 2.14 | 10.2 ± 1.69
COc1cc(CN(C)CC(O)COc2ccccc2OC)ccc1OCCN1CCC(C)CC1 (centres unmarked) [CHJ04086] | 34.7 ± 3.42 | – | – | –

Continued by falling IC50 [3], values first:

IC50 [1] [µM] | IC50 [2] [µM] | IC50 [3] [µM] | IC50 [4] [µM] | Compound
0.45 ± 0.46 | – | 2.78 ± 0.23 | 4.96 ± 1.26 | COc1cc(CN(C)CC(O)COc2ccc(C)c(Br)c2)ccc1OCCN1CCC(C)CC1 (centres unmarked) [CHJ04010, 1-(3-bromo-4-methylphenoxy)-3-((3-methoxy-4-(2-(4-methylpiperidin-1-yl)ethoxy)benzyl)(methyl)amino)propan-2-ol]
0.72 ± 0.8 | 2.1 ± 1.25 | 2.54 ± 0.1 | 6.19 ± 0.25 | COc1cc(CN(C)CC(O)COc2ccccc2C(C)C)ccc1OCCN1CCC(C)CC1 (centres unmarked) [CHJ03004, 1(2-isopropylphenoxy)-3-((3-methoxy-4-(2-(4-methylpiperidin-1yl)ethoxy)benzyl) (methyl)amino)propan-2-ol]
0.92 ± 0.07 | 0.95 ± 0.37 | 2.23 ± 1.26 | 6.22 ± 3.05 | COc1cc(CN(C)CC(O)COc2c(Cl)cc(Br)cc2Cl)ccc1OCCN1CCC(C)CC1 (centres unmarked) [CHJ04033, 1-(4-bromo-2,6-dichlorophenoxy)-3-((3-methoxy-4-(2-(4-methylpiperidin-1-yl)ethoxy)benzyl)(methyl)amino)propan-2-ol]
1.24 ± 1.01 | 6.38 ± 0.07 | 2.12 ± 0.04 | 4.34 ± 0.32 | COc1cc(CN(C)CC(O)COc2cc(Cl)cc(Cl)c2)ccc1OCCN1CCC(C)CC1 (centres unmarked) [CHJ04012, 1-(3,5-dichlorophenoxy)-3-((3-methoxy-4-(2-(4-methylpiperidin-1-yl)ethoxy)benzyl) (methyl)amino)propan-2-ol]
7.32 ± 1.8 | 28.8 ± 5.12 | 1.94 ± 0.79 | 49.2 ± 1.97 | COc1cc(CN(C)CC(O)COc2ccccc2Cl)ccc1OCCN1CCC(C)CC1 (centres unmarked) [CHJ04085, 1-(2-chlorophenoxy)-3-((3-methoxy-4-(2-(4-methylpiperidin-1-yl)ethoxy)benzyl) (methyl)amino)propan-2-ol]
2.43 ± 0.12 | 3.55 ± 0.06 | 1.87 ± 0.02 | 6.3 ± 0.16 | COc1cc(CN(C)CC(O)COc2c(Cl)cccc2Cl)ccc1OCCN1CCC(C)CC1 (centres unmarked) [CHJ02029, 1-(2,6-dichlorophenoxy)-3-((3-methoxy-4-(2-(4-methylpiperidin-1-yl)ethoxy)benzyl) (methyl)amino)propan-2-ol]
3.13 ± 0.06 | 18.8 ± 1.06 | 1.72 ± 1.58 | 1.79 ± 0.23 | COc1cc(CN(C)CC(O)COc2cc(Br)ccc2F)ccc1OCCN1CCC(C)CC1 (centres unmarked) [CHJ03018]
2.44 ± 1.03 | 13.3 ± 2.02 | 1.23 ± 0.17 | 10.4 ± 1.43 | COc1cc(CN(C)CC(O)COc2ccc(Cl)cc2)ccc1OCCN1CCC(C)CC1 (centres unmarked) [CHJ04083, 1-(4-chlorophenoxy)-3((3-methoxy-4-(2-(4-methylpiperidin-1-yl)ethoxy)benzyl)(methyl)amino)propan-2-ol]
1.5 ± 0.06 | 0.97 ± 0.21 | 0.82 ± 0.42 | 7.45 ± 2.26 | COc1cc(CN(C)CC(O)COc2ccc(Cl)c(Cl)c2)ccc1OCCN1CCC(C)CC1 (centres unmarked) [CHJ04026, 1-(3,4-dichlophenoxy)-3-((3-methoxy-4-(2-(4-methylpiperidin-1-yl)ethoxy)benzyl) (methyl)amino)propan-2-ol]
5.95 ± 0.42 | 6.08 ± 0.9 | 0.7 ± 0.26 | 3 ± 0.99 | COc1cc(CN(C)CC(O)COc2ccccc2Br)ccc1OCCN1CCC(C)CC1 (centres unmarked) [CHJ03003, 1-(2-bromophenoxy)-3-((3-methoxy-4-(2-(4-methylpiperidin-1-yl)ethoxy)benzyl) (methyl)amino)propan-2-ol]
– | 1.03 ± 0.13 | 0.55 ± 0.21 | 4.47 ± 1.62 | COc1cc(CN(C)CC(O)COc2cccc(C(C)C)c2)ccc1OCCN1CCC(C)CC1 (centres unmarked) [CHJ03015, 1-(3-isopropylphenoxy)-3-((3-methoxy-4-(2-(4-methylpiperidin-1-yl)ethoxy)benzyl) (methyl)amino)propan-2-ol]
– | 1.09 ± 0.06 | 0.53 ± 0.15 | 6.19 ± 0.62 | COc1cc(CN(C)CC(O)COc2ccc(Br)cc2)ccc1OCCN1CCC(C)CC1 (centres unmarked) [CHJ03014]
